Assays:
flavodoxin of H. pylori = molecular target: T1, flavodoxin of H. pylori (Helicobacter pylori, UniProt O25776); assay: Binding to flavodoxin by isothermal titration calorimetry (ITC); settings: 50 mM EPPS buffer, pH 9 with 7% DMSO, protein around 20 μM, read-out: affinity for flavodoxin (affinity constant)
T1 construct: made in house; host or cells: E. coli BL21
Description: The specific binding of the inhibitors of the present invention to flavodoxin of H. pylori was confirmed by isothermal titration calorimetry (ITC). This technique not only measures the affinity of each compound for the target protein, but also determines the contribution of the enthalpic and entropic components of binding.
The binding experiments were carried out in 50 mM EPPS buffer, pH 9 with 7% DMSO, with the inhibitor in the injection syringe at a concentration of 300-500 μM, and the protein around 20 μM in the measurement cell.

H. pylori flavodoxin = molecular target: T2, H. pylori flavodoxin (Helicobacter pylori, UniProt O25776); assay: Inhibition of the sequential electron transfer reaction pyruvate-PFOR-flavodoxin-FqrB-NADP+ (NADPH formation at 340 nm); type: biochemical; settings: 50 μM compound; anaerobic; absorbance at 340 nm; 10 μM Fld
T2 construct: made in house; host or cells: E. coli BL21 (flavodoxin); E. coli JVQ2 (PFOR); E. coli BL21(DE3) (FqrB)
T2 sequence (O25776 1-164): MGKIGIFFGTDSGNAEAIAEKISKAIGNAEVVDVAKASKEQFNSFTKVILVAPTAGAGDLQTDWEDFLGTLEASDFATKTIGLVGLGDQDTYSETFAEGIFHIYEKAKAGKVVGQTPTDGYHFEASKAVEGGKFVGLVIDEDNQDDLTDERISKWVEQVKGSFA
From the text: Measurement of the absorbance (A) (AU is the unit of absorbance) at 340 nm against time (t) in seconds (s).
Flavodoxin is an essential protein for Helicobacter pylori survival as it participates in a fundamental reaction for obtaining energy from the oxidative decarboxylation of pyruvate. In this reaction, flavodoxin transfers electrons between the PFOR enzyme and the FqrB enzyme, which releases them to NADP^+.
The sequential reaction of electron transfer between pyruvate, PFOR, flavodoxin, FqrB and NADP^+ (activity assay) was followed spectroscopically by the appearance of the signal at 340 nm with the formation of NADPH. The reaction mixture contained 100 mM potassium phosphate pH 7, 10 mM pyruvate, 0.18 mM CoA, 1 mM MgCl, 0.3 mM NADP^+, 0.09 mg/ml PFOR, 10 μM Fld and 0.15 μM FqrB. The mixture, except CoA, was placed in a cuvette specially designed for anaerobic conditions. Oxygen was removed by means of 5 minute cycles with alternate flows of vacuum and argon. The reaction was started by the addition of 0.18 mM coenzyme A (CoA) that was held in a compartment inside the same cuvette. The reaction completed 15 minutes after adding the CoA reagent.
The inhibition assays were carried out in the same conditions as the activity assays previously described, adding an additional 50 μM of the disclosed compound of the general formula shown in (II) to the reaction cuvette.

O=[N+]([O-])/C=C/c1cc(C(F)(F)F)cc(C(F)(F)F)c1 [(II)]
Kd (flavodoxin of H. pylori): 8 µM
inhibition of product (NADPH) formation in the essential reaction of H. pylori (H. pylori flavodoxin): almost total

From US8461202B2, “Composition for treating infectious diseases” (priority 2007, dated 2013)
